According to patent publication US12351571B2, “Substituted quinoxaline compounds as inhibitors of FGFR tyrosine kinases” (ARRAY BIOPHARMA INC., priority 2018, dated 2025):

Tests used:
phosphorylated FGFR3 = phosphorylated FGFR3 (Homo sapiens (Human), UniProt P22607); experiment: FGFR Enzyme Binding Assay (HTRF tracer displacement), FGFR3; settings: 5 nM phosphorylated FGFR3, 60 minute incubation at 22° C.; read-out: FGFR3 Enz Binding IC50
Method: The potency of compounds inhibiting human isoforms of FGFR kinase was determined using Life Technologies' Homogeneous Time Resolved Fluorescence (HTRF)-based binding assay technology. An incubation was conducted with either 5 nM dephosphorylated FGFR1 (Array Biopharma, p1702; SEQ ID NO: 1, amino acids 458 to 765, dephosphorylated by co-expression with PTP1b (protein tyrosine phosphatase 1B)), 5 nM dephosphorylated FGFR2 (Life Technologies, Cat. No. PV4106 that had been dephosphorylated with Lambda protein phosphatase (New England Biolabs, cat #P0753)) or 5 nM phosphorylated FGFR3 (Array Biopharma, p1836; SEQ ID NO: 5, amino acids 449 to 759), 50 nM Kinase Tracer 236 (Life Technologies Cat. No. PR9078A), 2 nM Biotin-anti-6HIS (Life Technologies Cat. No. PV6090) and 2 nM Europium-Streptavidin (Life Technologies Cat. No. PV6025) along with test compound in a buffer consisting of 50 mM HEPES ((4-(2-hydroxyethyl)-1-piperazineethanesulfonic acid, pH 7.5), 5 mM MgCl2, 0.005% Triton X-100, 1 mM DTT, 1 mM NaVO4 and 2% DMSO in a final volume of 12 μL Compounds were typically prepared as a 3-fold or 4-fold serial dilution in DMSO and added to the assay to give the appropriate final concentration. After a 60 minute incubation at 22° C., the extent of tracer displacement was determined using a PerkinElmer EnVision multimode plate reader via HTRF dual wavelength detection, and the percent of control (POC) was calculated using a ratiometric emission factor. One hundred POC was determined using no test compound, and 0 POC was determined in the presence of 1 μM of an appropriate control inhibitor. A 4-parameter logistic curve was fit to the POC values as a function of the concentration of compound, and the IC50 value was the point where the best-fit curve crossed 50 POC.

[1] = target: recombinant human FGFR1 catalytic domain (Homo sapiens (Human), UniProt P11362); experiment: FGFR Enzyme Activity Assay (LanthaScreen TR-FRET), FGFR1; format: biochemical; settings: 15 μM ATP, 20 minutes incubation; read-out: FGFR1 Enz FRET IC50
Method: FGFR1 kinase activity was measured by the Invitrogen LanthaScreen™ Assay technology which directly measures the amount of substrate phosphorylation by Time-resolved fluorescence energy transfer (TR-FRET) using a flourescently-labeled peptide and Europium-labeled antibody. Briefly, 200 pM His-tagged recombinant human FGFR1 catalytic domain (amino acids 308-731) (Life Technologies Cat. No. PR4660A) was incubated with 100 nM Alexa Fluor® 647-Poly-GT Peptide Substrate (Life Technologies Cat. No. PV5836) and 15 μM ATP along with test compound in a buffer consisting of 250 mM HEPES, 25 mM MgCl2, 0.05% TritonX-100, pH 7.5, and 2% DMSO. Compounds were typically prepared in a threefold serial dilution in DMSO and added to the assay to give the appropriate final concentration. After a 20 minutes incubation at 22° C., an equal volume of 2 nM LanthaScreen® Eu-PY20 Antibody (Life Technologies Cat. No. PV5691) and 10 mM EDTA was added to quench the kinase reaction and start the detection reaction. After an additional 60 minute incubation at 22° C., the reaction was measured using a PerkinElmer EnVision multimode plate reader via TR-FRET dual wavelength detection, and the percent of control (POC) calculated using a ratiometric emission factor. 100 POC was determined using no test compounds and 0 POC was determined using no enzyme. The POC values were fit to a 4-parameter logistic curve as a function of the concentration of the compound, and the IC50 value is the point where the curve crosses 50 POC.

FGFR3 [2] = target: T1, FGFR3 (Homo sapiens (Human), UniProt P22607); experiment: FGFR Enzyme Activity Assay (LanthaScreen TR-FRET), FGFR3; format: biochemical; settings: 25 μM ATP, 10 minute incubation; read-out: FGFR3 Enz FRET IC50
Method: FGFR3 kinase activity was measured by the Invitrogen LanthaScreen™ Assay technology which directly measures the amount of substrate phosphorylation by TR-FRET using a flourescently-labeled peptide and Europium-labeled antibody. Briefly, 750 pM N-terminal GST-HIS6 fusion protein with a 3C cleavage site recombinant human FGFR3 (amino acids R397-T806) (ProQinase Cat. No. 1068-0000-1) was incubated with 100 nM Alexa Fluor® 647-Poly-GT Peptide Substrate (Life Technologies Cat. No. PV5836) and 25 μM ATP along with test compound in a buffer consisting of 250 mM HEPES, 25 mM MgCl2, 0.05% TritonX-100, pH 7.5, and 2% DMSO. Compounds were typically prepared in a threefold serial dilution in DMSO and added to the assay to give the appropriate final concentration. After a 10 minute incubation at 22° C., an equal volume of 2 nM LanthaScreen® Eu-PY20 Antibody (Life Technologies Cat. No. PV5691) and 10 mM EDTA were added to quench the kinase reaction and start the detection reaction. After an additional 60 minute incubation at 22° C., the reaction was measured using a PerkinElmer EnVision multimode plate reader via TR-FRET dual wavelength detection, and the percent of control (POC) calculated using a ratiometric emission factor. 100 POC was determined using no test compounds and 0 POC was determined using no enzyme. The POC values were fit to a 4-parameter logistic curve as a function of the concentration of the compound, and the IC50 value is the point where the curve crosses 50 POC.
Target sequence in this assay (P22607 397-806): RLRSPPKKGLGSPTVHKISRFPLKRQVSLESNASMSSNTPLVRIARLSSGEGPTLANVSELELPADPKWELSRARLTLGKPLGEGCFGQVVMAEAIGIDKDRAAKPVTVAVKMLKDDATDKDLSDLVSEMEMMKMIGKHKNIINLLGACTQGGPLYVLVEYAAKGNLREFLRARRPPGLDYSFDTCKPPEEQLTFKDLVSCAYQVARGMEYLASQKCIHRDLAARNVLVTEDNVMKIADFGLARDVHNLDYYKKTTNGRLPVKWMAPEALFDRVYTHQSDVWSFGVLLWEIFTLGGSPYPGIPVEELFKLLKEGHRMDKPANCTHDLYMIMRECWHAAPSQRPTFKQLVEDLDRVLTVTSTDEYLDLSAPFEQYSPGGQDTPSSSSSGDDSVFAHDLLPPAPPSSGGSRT

FGFR3 [3] = target: T1, FGFR3; experiment: LC/MS FGFR3 kobs assay (covalent modification); format: biochemical; settings: 500 nM FGFR3, 3 μM compound
Method: The LC/MS FGFR1 and FGFR3 kobs assays were conducted as follows. 500 nM FGFR1 (Array BioPharma construct p1702; SEQ ID NO: 1, amino acids 458-765) or FGFR3 (Array BioPharma construct p1700; SEQ ID NO: 5, amino acids 449-759) were incubated with 3 μM compound in 25 mM HEPES (4-(2-hydroxyethyl)-1-piperazineethanesulfonic acid), pH 7.4, 5 mM MgCl2, 150 mM NaCl, 0.5 mM TCEP (tris(2-carboxyethyl) phosphine), and 2% DMSO in a total volume of 20 μL. At each time point, the reaction was quenched with 20 μL of 0.4% formic acid. The extent of protein modification by each compound was determined by LC/MS on an Agilent Technologies 6520 Q-TOF LC/MS. Protein signals were then automatically deconvoluted using Agilent Masshunter software. Deconvoluted mass signals were exported to Tibco Spotfire data analysis program for further processing and normalization.
Data analysis included five steps. First, the signals for the “DMSO Controls” were analyzed to determine the percent of signal associated with unmodified FGFR1 or FGFR3 at each time point. Next, the percent of the signal associated with the covalent modification was determined. Third, the average nonmodified “DMSO Control” signal was used to normalize the modified protein signals at each time point. The percent of unmodified protein was fit to an exponential decay model where A0 is the Percent Unmodified at the start of the reaction, and kobs is the observed rate constant over the time period.
Target sequence in this assay (P22607 449-759): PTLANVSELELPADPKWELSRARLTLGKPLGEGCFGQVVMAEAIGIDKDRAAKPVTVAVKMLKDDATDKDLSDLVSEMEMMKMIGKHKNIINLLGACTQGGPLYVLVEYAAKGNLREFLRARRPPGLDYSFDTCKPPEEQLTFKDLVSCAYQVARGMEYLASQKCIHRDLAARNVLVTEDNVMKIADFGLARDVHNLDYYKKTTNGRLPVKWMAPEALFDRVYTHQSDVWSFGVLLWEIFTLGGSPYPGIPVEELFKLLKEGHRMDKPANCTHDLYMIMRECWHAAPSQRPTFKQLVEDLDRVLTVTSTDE

Chain of recombinant human FGFR1 catalytic domain (P11362 other isoform, or with tags, fused parts or gaps): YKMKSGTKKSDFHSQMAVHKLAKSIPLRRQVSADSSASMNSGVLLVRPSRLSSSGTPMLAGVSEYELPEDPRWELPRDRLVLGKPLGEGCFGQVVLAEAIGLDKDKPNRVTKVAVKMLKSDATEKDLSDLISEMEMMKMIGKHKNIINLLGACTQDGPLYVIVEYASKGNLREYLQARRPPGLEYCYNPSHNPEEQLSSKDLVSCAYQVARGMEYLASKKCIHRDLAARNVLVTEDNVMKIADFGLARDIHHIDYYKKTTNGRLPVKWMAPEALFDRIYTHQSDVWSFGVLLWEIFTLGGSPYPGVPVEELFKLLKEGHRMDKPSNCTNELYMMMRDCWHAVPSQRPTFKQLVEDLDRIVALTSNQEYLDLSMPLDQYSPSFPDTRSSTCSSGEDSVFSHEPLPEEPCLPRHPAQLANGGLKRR
Chain of phosphorylated FGFR3 (P22607 449-759): as the sequence (P22607 449-759) above

Row | SMILES | IC50 (phosphorylated FGFR3) [nM] | IC50 [1] [nM] | IC50 (FGFR3 [2]) [nM] | FGFR3 Enz kobs (FGFR3 [3]) [min⁻¹]
1 | C#CCN(c1cc(OC)cc(OC)c1)c1ccc2ncc(-c3cnn(C4CCN(C(=O)C5(F)CN(C(=O)/C=C/CN(C)C)C5)CC4)c3)nc2c1 [Example 28, (E)-1-(3-(4-(4-(7-((3,5-dimethoxyphenyl)(prop-2-yn-1-yl)amino)quinoxalin-2-yl)-1H-pyrazol-1-yl)piperidine-1-carbonyl)-3-fluoroazetidin-1-yl)-4-(dimethylamino)but-2-en-1-one] | 2 | 21 | 6 | 0.078
2 | C=CC(=O)N1CC(CN2CCC(n3cc(-c4cnc5ccc(Nc6cc(OC)cc(OC)c6)cc5n4)cn3)CC2)(OC)C1 [Example 29, 1-(3-((4-(4-(7-((3,5-dimethoxyphenyl)amino)quinoxalin-2-yl)-1H-pyrazol-1-yl)piperidin-1-yl)methyl)-3-methoxyazetidin-1-yl)prop-2-en-1-one] | 3 | 414 | 40 | 0.01671
3 | COc1cc(Nc2ccc3ncc(-c4cnn(C5CCN(C(=O)C6(F)CN(C(=O)/C=C/CN(C)C)C6)CC5)c4)nc3c2)cc(OC)c1 [Example 10, (E)-1-(3-(4-(4-(7-((3,5-dimethoxyphenyl)amino)-quinoxalin-2-yl)-1H-pyrazol-1-yl)piperidine-1-carbonyl)-3-fluoro-azetidin-1-yl)-4-(dimethylamino)but-2-en-1-one] | 3 | 35 | 16 | 0.09291
4 | C=CC(=O)N1CC(C(=O)N2CC[C@@H](n3cc(-c4cnc5ccc(Nc6cc(OC)cc(OC)c6)cc5n4)cn3)C2)C1 [Example 21, (R)-1-(3-(3-(4-(7-((3,5-dimethoxyphenyl)amino)-quinoxalin-2-yl)-1H-pyrazol-1-yl)pyrrolidine-1-carbonyl)azetidin-1-yl)prop-2-en-1-one] | 5 | 295 | 37 | 0.00664
5 | COc1cc(Nc2ccc3ncc(-c4cnn(C5CCN(C(=O)C6(C#N)CN(C(=O)/C=C/CN(C)C)C6)CC5)c4)nc3c2)cc(OC)c1 [Example 11, (E)-3-(4-(4-(7-((3,5-dimethoxyphenyl)amino)-quinoxalin-2-yl)-1H-pyrazol-1-yl)piperidine-1-carbonyl)-1-(4-(dimethyl-amino)but-2-enoyl)-azetidine-3-carbonitrile] | 3 | 44 | 7 | 0.1473
6 | COc1cc(Nc2ccc3ncc(-c4cnn(C5CCN(C(=O)C6(F)CN(C(=O)/C=C/CN(C)C)C6)CC5)c4C)nc3c2)cc(OC)c1 [Example 17, (E)-1-(3-(4-(4-(7-((3,5-dimethoxyphenyl)amino)-quinoxalin-2-yl)-5-methyl-1H-pyrazol-1-yl)piperi-dine-1-carbonyl)-3-fluoroazetidin-1-yl)-4-(dimethylamino)but-2-en-1-one] | 5 | 376 | 48 | 0.08024
7 | COc1cc(Nc2ccc3ncc(-c4cnc(N5CCN(C(=O)C6(F)CN(C(=O)/C=C/CN(C)C)C6)CC5)cc4C)nc3c2)cc(OC)c1 [Example 14, (E)-1-(3-(4-(5-(7-((3,5-dimethoxyphenyl)amino)-quinoxalin-2-yl)-4-methylpyridin-2-yl)-piperazine-1-carbonyl)-3-fluoroazetidin-1-yl)-4-(dimethylamino)but-2-en-1-one] | 123 | 1560 | 490 | 0.04226
8 | COc1cc(Nc2ccc3ncc(-c4cn(C5CCN(C(=O)C6(F)CN(C(=O)/C=C/CN(C)C)C6)CC5)nc4C)nc3c2)cc(OC)c1 [Example 22, (E)-1-(3-(4-(4-(7-((3,5-dimethoxyphenyl)amino)-quinoxalin-2-yl)-3-methyl-1H-pyrazol-1-yl)-piperidine-1-carbonyl)-3-fluoroazetidin-1-yl)-4-(dimethylamino)but-2-en-1-one] | 4 | 339 | 79 | 0.05725
9 | C=CC(=O)N1CC(O)(C(=O)N2CCC(n3cc(-c4cnc5ccc(N(C)c6cc(OC)cc(OC)c6)cc5n4)cn3)CC2)C1 [Example 27, 1-(3-(4-(4-(7-((3,5-dimethoxyphenyl)(methyl)amino)quinoxalin-2-yl)-1H-pyrazol-1-yl)piperidine-1-carbonyl)-3-hydroxyazetidin-1-yl)prop-2-en-1-one] | 6 | 10 | 2 | 0.00987
10 | C=CC(=O)N1CC[C@@H](C(=O)N2CCC(n3cc(-c4cnc5ccc(Nc6cc(OC)cc(OC)c6)cc5n4)cn3)CC2)C1 [Example 2, (R)-1-(3-(4-(4-(7-((3,5-dimethoxyphenyl)amino)-quinoxalin-2-yl)-1H-pyrazol-1-yl)piperidine-1-carbonyl)pyrrolidin-1-yl)-prop-2-en-1-one] | 4 | 49 | 10 | 0.00302
